Test results as given in PMC12389534, “Unlocking Therapeutic Potential of Novel Thieno-Oxazepine Hybrids as Multi-Target Inhibitors of AChE/BChE and Evaluation Against Alzheimer’s Disease: In Vivo, In Vitro, Histopathological, and Docking Studies” (Pharmaceuticals, 2025).

What was measured:
TNF-α = experiment: Brain TNF-α level (ELISA); assay type: in vivo, rat; conditions: AlCl3-induced AD rats; for TNF-α (pg/g Tissue): mean ± SE, n = 6
Procedure: (§1) The brain tissues of the rats were removed and rigorously washed in isotonic saline 24 h after they were euthanized following the last behavioral test. For histological investigation, four brains per group were preserved for the whole night in 10% neutral buffered formalin. The remaining six brains were split into two sections each. In order to create a 10% homogenate (w/v), the first component was instantaneously homogenized using an ice-cold solution that included 300 mM sucrose and 50 mM Tris-HCl (pH 7.4). The homogenate was centrifuged at 1800× g for 10 min at 4 °C for biochemical tests, and the supernatant was thereafter kept at −20 °C. The second portion was set aside for use in RT-PCR analysis at −80 °C [94]. […]

BAX/Bcl-2 = BAX/Bcl-2 ratio of gene expression; assay type: in vivo, rat; conditions: AlCl3-induced AD rats
Procedure: (§2) The brain tissues of the rats were removed and rigorously washed in isotonic saline 24 h after they were euthanized following the last behavioral test. For histological investigation, four brains per group were preserved for the whole night in 10% neutral buffered formalin. The remaining six brains were split into two sections each. In order to create a 10% homogenate (w/v), the first component was instantaneously homogenized using an ice-cold solution that included 300 mM sucrose and 50 mM Tris-HCl (pH 7.4). The homogenate was centrifuged at 1800× g for 10 min at 4 °C for biochemical tests, and the supernatant was thereafter kept at −20 °C. The second portion was set aside for use in RT-PCR analysis at −80 °C [94].
(§3) See Supplementary Information.

Amyloid-β = experiment: Brain amyloid-β level (ELISA); assay type: in vivo, rat; set-up: reduction of β-amyloid levels: concentration or dose not given beside the values; conditions: AlCl3-induced AD rats; for Amyloid-β (ng/g Tissue): brain, mean ± SE, n = 6
Procedure: as §2, §3

BAX = BAX gene expression (RT-qPCR); assay type: in vivo, rat; conditions: AlCl3-induced AD rats; for BAX: gene expression, mean ± SE, n = 6
Procedure: as §2, §3

[1] = tested on: AlCl3-induced AD rat model; experiment: Morris water maze (MWM) test in AlCl3-induced AD rats; assay type: in vivo; conditions: for Learning (s): escape latency; for Learning (s) / Memory (s): mean ± SE, n = 6; for Memory (s): time spent in target quadrant
Procedure: All procedures were conducted conforming to the applicable National Institutes of Health standards and regulations for the Care and Use of Laboratory Animals. In this experiment, adult male Dawley rats in excellent condition weighing between 300 and 320 g were used. The animals were acquired from the Nile Company for Pharmaceuticals and Chemical Industries (Cairo, Egypt). They were placed in a controlled laboratory setting with unrestricted access to water, a temperature range of 24 to 26 °C, and 12 h a light–dark cycle. Three rats per cage were housed in polycarbonate cages that were individually packed with paper and encased with stainless steel wire.
Spatial learning and memory were inspected using the MWM test. Tap water was poured into a 150 cm diameter by 60 cm high circular water tank until it reached a depth of 30 cm (25 ± 2 °C). To make the water […], non-toxic white dye was applied. The east, west, north, and south quadrants of the pool were essentially separated into four equal sections. At a specific spot in the middle of one quadrant, an escape platform with a diameter of 10 cm was submerged 2 cm below the water’s surface. The platform stood in the exact same quadrant throughout the testing. The rats’ swimming route was recorded by a video camera situated above the pool. From a designated spot in each quadrant, each rat was submerged in the water with its back turned to the pool wall, and it was then left to swim to the platform. The rats received training sessions every day for three days in a row, with four trials conducted in each session. Before the next trial began, the animals were kept a maximum of 60 s to explore the hidden platform. After that, they were permitted to relax on it for 20 s. The rat was positioned gently on the platform and allowed 20 s to rest if it took longer than 60 s to locate it. The time taken to find the platform, or the escape latency, was documented. In order to do a probing test on the fourth day, the platform was detached away, and the rats were given 60 s to swim liberally. The time spent in the assigned quadrant was counted.

Nrf-2 = Nrf-2 mRNA expression (RT-qPCR); assay type: in vivo, rat; conditions: AlCl3-induced AD rats; for Nrf-2: mRNA expression in brain tissue, mean ± SE, n = 6
Procedure: as §2, §3

5-HT = experiment: Brain 5-HT level (fluorometric); assay type: in vivo, rat; conditions: AlCl3-induced AD rats; for 5-HT (ng/g Tissue): brain tissue, mean ± SE, n = 6
Procedure: as §2
Brain monoamine levels were promptly assessed following the rats’ euthanasia to prevent changes in the substance’s concentration. Dopamine (DA), norepinephrine (NE), and serotonin (5-HT) fluorometric tests were conducted on brain tissue homogenate using the Ciarlone method. […] The concentrations were articulated as nanograms per gram of fresh tissue using the fluorescence of reference solutions [95].

AChE = molecular target: T1, AChE (Homo sapiens, UniProt P22303); experiment: biochemical; conditions: colorimetric kit, 412 nm
T1 construct: purchased BioVision K197-100
Procedure: All newly created compounds were subjected to an AChE enzyme inhibitory screening. This was performed with the Colorimetric AChE Inhibitor Screening Kit (BioVision Catalog # K197-100). The 96-well assay kit provides a rapid, simple, and reliable way to screen for AChE inhibitors in large quantities. […] A completely transparent 96-well plate with a flat bottom was loaded with 10 µL of test inhibitors that were diluted (20×). […] A measure of 10 μL of diluted AChE was applied to each well that contained compounds, inhibitor control, and solvent control. […] Measures of 25 μL of AChE assay buffer, 5 μL of probe mix, and 10 μL of diluted AChE substrate were mixed to create the reaction mix. The reaction mix was mixed with the compound, enzyme control, and inhibitor control. […] The IC50 was calculated using nonlinear regression analysis using the response–concentration (log) curve.

IL-1β = experiment: Brain IL-1β level (ELISA); assay type: in vivo, rat; set-up: reduction in IL-1β levels: concentration or dose not given beside the values; conditions: AlCl3-induced AD rats; for IL-β (pg/g Tissue): mean ± SE, n = 6
Procedure: as §1

BChE = molecular target: T2, BChE (Homo sapiens, UniProt P06276); experiment: biochemical; conditions: for IC50: fluorescence kit, triplicate; for Selectivity Index BChE/AChE: ratio of IC50 BChE to IC50 AChE, <1 = preferential BChE inhibition
T2 construct: purchased Invitrogen EIABCHEF
Procedure: Using an Invitrogen BChE test kit (Catalog #EIABCHEF), the assay was performed in compliance with the supplier’s instructions. The study was conducted using black 96-well plates. […] Each well was then filled with 50 μL of the reaction mixture, which consisted of fluorescence detection reagent and butyrylthiocholine iodide in assay buffer. The plate was then left to incubate for 20 min at room temperature. Finally, excitation at 390 nm was used to observe emission at 510 nm using a microplate reader. Background fluorescence was further eliminated for each data point.

NLRP3 = NLRP3 mRNA expression (RT-qPCR); assay type: in vivo, rat; set-up: reduction of NLRP3 mRNA expression: concentration or dose not given beside the values; conditions: AlCl3-induced AD rats; for NLRP3: mRNA expression level, mean ± SE, n = 6
Procedure: as §2, §3

GSK3β = GSK3β gene expression (RT-qPCR); assay type: in vivo, rat; conditions: AlCl3-induced AD rats; for GSK3β: gene expression, mean ± SE, n = 6
Procedure: as §2, §3

T1 sequence (P22303 32-614): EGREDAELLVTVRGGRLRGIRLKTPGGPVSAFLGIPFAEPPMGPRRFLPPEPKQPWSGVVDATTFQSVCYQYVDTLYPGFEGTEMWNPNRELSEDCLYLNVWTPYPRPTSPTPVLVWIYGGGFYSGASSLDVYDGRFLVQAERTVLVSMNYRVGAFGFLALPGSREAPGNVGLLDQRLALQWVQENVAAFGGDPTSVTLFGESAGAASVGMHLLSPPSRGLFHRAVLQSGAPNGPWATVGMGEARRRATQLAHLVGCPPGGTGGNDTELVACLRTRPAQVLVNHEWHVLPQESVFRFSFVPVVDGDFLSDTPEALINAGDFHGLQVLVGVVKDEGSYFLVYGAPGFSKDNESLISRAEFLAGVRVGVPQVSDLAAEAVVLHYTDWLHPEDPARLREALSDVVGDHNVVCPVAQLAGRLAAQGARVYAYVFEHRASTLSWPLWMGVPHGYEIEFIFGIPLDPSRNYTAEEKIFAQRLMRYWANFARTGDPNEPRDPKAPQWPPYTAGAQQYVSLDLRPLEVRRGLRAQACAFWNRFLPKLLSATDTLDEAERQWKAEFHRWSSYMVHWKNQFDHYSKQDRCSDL
T2 sequence (P06276 29-602): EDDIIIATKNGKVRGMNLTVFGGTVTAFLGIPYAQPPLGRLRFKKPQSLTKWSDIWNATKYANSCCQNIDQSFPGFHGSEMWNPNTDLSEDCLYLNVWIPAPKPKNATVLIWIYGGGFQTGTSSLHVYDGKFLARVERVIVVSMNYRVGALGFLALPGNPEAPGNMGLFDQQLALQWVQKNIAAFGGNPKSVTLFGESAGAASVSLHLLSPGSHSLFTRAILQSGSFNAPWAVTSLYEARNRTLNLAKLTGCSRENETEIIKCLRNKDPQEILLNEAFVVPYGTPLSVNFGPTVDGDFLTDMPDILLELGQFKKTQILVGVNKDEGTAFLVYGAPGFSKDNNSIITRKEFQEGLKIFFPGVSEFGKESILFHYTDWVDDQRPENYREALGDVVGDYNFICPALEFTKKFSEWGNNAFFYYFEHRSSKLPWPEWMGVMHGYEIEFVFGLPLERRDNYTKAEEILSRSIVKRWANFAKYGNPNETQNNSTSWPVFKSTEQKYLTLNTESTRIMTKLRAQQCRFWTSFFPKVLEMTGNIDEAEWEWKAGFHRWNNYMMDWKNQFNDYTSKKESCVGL

| SMILES | decline in TNF-α levels (TNF-α) [%] | TNF-α (pg/g Tissue) (TNF-α) | BAX/Bcl-2 Ratio (BAX/Bcl-2) | reduction of β-amyloid levels (Amyloid-β) [%] | Amyloid-β (ng/g Tissue) (Amyloid-β) | BAX (BAX) | Learning (s) [1] | Memory (s) [1] | elevation of Nrf-2 mRNA expression (Nrf-2) [fold] | Nrf-2 (Nrf-2) | elevation of 5-HT levels (5-HT) [fold] | 5-HT (ng/g Tissue) (5-HT) | IC50 (AChE) [µM] | reduction in IL-1β levels (IL-1β) [%] | IL-β (pg/g Tissue) (IL-1β) | IC50 (BChE) [µM] | Selectivity Index BChE/AChE (BChE) | reduction of NLRP3 mRNA expression (NLRP3) [%] | NLRP3 (NLRP3) | GSK3β (GSK3β) | further results |
| --- | --- | --- | --- | --- | --- | --- | --- | --- | --- | --- | --- | --- | --- | --- | --- | --- | --- | --- | --- | --- | --- |
| CCOc1ccc(N2CC(=O)Oc3sc4c(c3C2=O)CCCCC4)cc1 [Compound 14, 4-(4-Ethoxyphenyl)-3,4,7,8,9,10-hexahydro-6H-cyclohepta[4,5]thieno[3,2-f][1,4]oxazepine-2,5-dione] | 58.4 | 73.21 ± 0.58 ^abc pg/g Tissue | 7.84 | 58.4 | 11.66 ± 0.17 ^abc ng/g Tissue | 5.49 ± 0.100 ^abc | 21 ± 1.13 ^abc s | 29.50 ± 2 ^abc s | 3.1 | 0.50 ± 0.020 ^abc | 4.5 | 8.22 ± 0.19 ^abc ng/g Tissue | 0.39 ± 0.01 | 49.3 | 59.92 ± 0.98 ^abc pg/g Tissue | 2.93 ± 0.1 | 7.50 | 63.2 | 3.92 ± 0.04 ^abc | 3.13 ± 0.07 ^abc |  |
| O=C1CN(c2ccccc2)C(=O)c2c(sc3c2CCCCC3)O1 [Compound 11, 4-Phenyl-3,4,7,8,9,10-hexahydro-6H-cyclohepta[4,5]thieno[3,2-f][1,4]oxazepine-2,5-dione] | 43.6 | 99.23 ± 0.42 ^abc pg/g Tissue | 13.15 | 48.9 | 14.25 ± 0.16 ^abc ng/g Tissue | 6.84 ± 0.090 ^abc | 25.17 ± 1.25 ^abc s | 35.17 ± 0.95 ^abc s |  | 0.35 ± 0.006 ^abc | 5.0 | 9.13 ± 0.36 ^abc ng/g Tissue | 2.67 ± 0.09 | 42.1 | 68.56 ± 0.54 ^abc pg/g Tissue | 13.8 ± 0.48 | 5.18 | 49.5 | 5.39 ± 0.11 ^abc | 2.34 ± 0.06 ^abc | suppression of BAX gene expression (BAX): 29.3%; increase in quadrant residence time [1]: 3.5 times |
| CCOC(=O)c1c(OC(=O)CCl)sc2c1CCCCC2 [Compound 4, Ethyl 2-(2-chloroacetoxy)-5,6,7,8-tetrahydro-4H-cyclohepta[b]thiophene-3-carboxylate] | 35.4 | 113.6 ± 0.83 ^abc pg/g Tissue | 19.53 | 38.9 | 17.05 ± 0.2 ^abc ng/g Tissue | 7.42 ± 0.030 ^abc | 31.5 ± 1.48 ^abc s | 26.67 ± 1.54 ^abc s |  | 0.31 ± 0.004 ^abc | 2.4 | 4.29 ± 0.76 ^abc ng/g Tissue | 41.2 ± 1.42 | 30 | 82.82 ± 1.1 ^abc pg/g Tissue | 56.2 ± 1.93 | 1.36 |  | 6.30 ± 0.09 ^abc | 6.86 ± 0.15 ^abc | suppression of BAX gene expression (BAX): 23.3%; reduction in escape latency [1]: 35.9%; reduction of GSK3β gene expression (GSK3β): 32.7% |
| O=C1CN(c2ccc(O)cc2)C(=O)c2c(sc3c2CCCCC3)O1 [Compound 15, 4-(4-Hydroxyphenyl)-3,4,7,8,9,10-hexahydro-6H-cyclohepta[4,5]thieno[3,2-f][1,4]oxa-zepine-2,5-dione] | 74.6 | 44.6 ± 0.6 ^abc pg/g Tissue | 5.20 | 73.2 | 7.46 ± 0.9 ^abc ng/g Tissue | 4.47 ± 0.040 ^abc | 19.17 ± 1.01 ^abc s | 42.50 ± 1.06 ^abc s | 5.1 | 0.82 ± 0.020 ^abc | 3.7 | 6.77 ± 0.22 ^abc ng/g Tissue | 1.59 ± 0.06 | 61.1 | 45.66 ± 1.03 ^abc pg/g Tissue | 0.7 ± 0.02 | 0.44 | 68.5 | 3.36 ± 0.12 ^abc | 4.72 ± 0.05 ^abc | increase in quadrant residence time [1]: ~4.3 times; reduction in escape latency [1]: 61%; reduction of GSK3β gene expression (GSK3β): 53.7% |
